What was measured:
Format in all cases: biochemical, human
[1] = tested on: thrombin generation in pooled normal plasma; assay: Calibrated Automated Thrombogram thrombin generation assay in pooled normal plasma; settings: no anticoagulant; cyclodextrin 100 μM unless otherwise indicated; 1 pM TF
Protocol: FIGS. 3-8, 12, 14-19 and 22-27: Pooled normal plasma was spiked with cyclodextrins (100 μM, unless otherwise indicated) and anticoagulants. The concentrations of the anticoagulants were 100 ng/ml for dabigatran (A), 100 ng/ml for rivaroxaban (B), 60 ng/ml for apixaban (C), 60 ng/ml for edoxaban (D). The plasmas were subjected to thrombin generation analysis as described in the Materials and Methods section with 1 pM tissue factor (TF) as initiator of coagulation.
(§1) The Calibrated Automated Thrombogram® assays the generation of thrombin in clotting plasma using a microtiter plate reading fluorometer (Fluoroskan Ascent, ThermoLab systems, Helsinki, Finland) and Thrombinoscope® software (Thrombinoscope BV, Maastricht, The Netherlands). The assay was carried out as described by Hemker et al. (Pathofysiol. IIaemost. Thromb. 2003, 33, 4-15), and the Thrombinoscope® manual. Coagulation was triggered by recalcification in the presence of 1 or 5 pM recombinant human tissue factor (Innovin®, Siemens, Marburg, Germany), 4 μM phospholipids, and 417 μM fluorogenic substrate Z-Gly-Gly-Arg-AMC (Bachem, Bubendorf, Switzerland). Fluorescence was monitored using the Fluoroskan Ascent fluorometer (ThermoLabsystems, Helsinki, Finland), and the lag time, peak thrombin, velocity index and area under the curve (ETP) were calculated using the Thrombinoscope® software (Thrombinoscope BV).
Thrombin generation analyses were performed in pooled normal plasma with and without the addition of anticoagulants.

[2] = tested on: plasma of a hemophilia A patient containing anti-FVIII antibodies; assay: Thrombin generation in plasma of a hemophilia A patient with anti-factor VIII antibodies; settings: anti-FVIII antibodies 50 BU
Protocol: FIG. 28: Effect of OKL-1111 (A), OKL-1180 (B) and OKL-1187 (C) on coagulation in plasma of a hemophilia A patient with anti-factor VIII antibodies. BU=Bethesda Units.
as §1
The patient had developed antibodies against factor VIII prior to plasma withdrawal. The plasma contained high levels of anti-FVIII antibodies (50 BU).

[3] = tested on: plasma deficient in coagulation factor VIII; assay: Thrombin generation assay in plasma deficient in coagulation factor VIII
Protocol: FIG. 20: Plasma deficient in coagulation factor VIII was spiked with cyclodextrin OKL-1111 (A), OKL-1180 (B), and OKL-1187 (C) at the indicated concentrations.
as §1

[4] = tested on: plasma deficient in coagulation factor IX; assay: Thrombin generation assay in plasma deficient in coagulation factor IX
Protocol: as §1

O=C(O)CCCCCCCSCC1OC2OC3C(CSCCCCCCCC(=O)O)OC(OC4C(CSCCCCCCCC(=O)O)OC(OC5C(CSCCCCCCCC(=O)O)OC(OC6C(CSCCCCCCCC(=O)O)OC(OC7C(CSCCCCCCCC(=O)O)OC(OC8C(CSCCCCCCCC(=O)O)OC(OC1C(O)C2O)C(O)C8O)C(O)C7O)C(O)C6O)C(O)C5O)C(O)C4O)C(O)C3O (stereo not shown) [OKL-1180]
procoagulant effect in normal plasma [1]: procoagulant activity
thrombin generation in hemophilia A patient plasma [2]: concentration-dependently stimulated thrombin generation
procoagulant effect in factor VIII deficient plasma [3]: procoagulant effects
procoagulant activity in factor IX deficient plasma [4]: procoagulant activity
